According to PubChem BioAssay (NCI):
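All cell lines were grown in 96-well plates and treated with compound for 48 hours. GI50 marks 50% less growth. TGI: concentration producing complete growth inhibition.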

Tests used:
Assay in all cases: NCI anticancer screen, dose series, 48 h
[1] = tested on: MDA-MB-231 breast
[2] = tested on: OVCAR-8 ovarian
[3] = tested on: HT29 colon
[4] = tested on: TK-10 renal
[5] = tested on: 786-0 renal
[6] = tested on: MALME-3M melanoma
[7] = tested on: SK-MEL-2 melanoma
[8] = tested on: SN12C renal
[9] = tested on: BT-549 breast
[10] = tested on: NCI-H23 lung
[11] = tested on: SK-MEL-5 melanoma
[12] = tested on: HS 578T breast
[13] = tested on: OVCAR-3 ovarian
[14] = tested on: UO-31 renal
[15] = tested on: SK-OV-3 ovarian
[16] = tested on: SF-268 CNS
[17] = tested on: MDA-MB-435
[18] = tested on: HL-60(TB) leukemia
[19] = tested on: K-562 leukemia
[20] = tested on: A549 NSCLC
[21] = tested on: SNB-75 CNS
[22] = tested on: RPMI-8226 leukemia
[23] = tested on: HCC-2998 colon
[24] = tested on: SF-539 CNS
[25] = tested on: MDA-MB-468 breast
[26] = tested on: A498 renal
[27] = tested on: NCI-H522 lung
[28] = tested on: SR leukemia
[29] = tested on: COLO 205 colon
[30] = tested on: NCI/ADR-RES ovarian
[31] = tested on: HOP-92 NSCLC
[32] = tested on: KM12 colon
[33] = tested on: DU-145 prostate
[34] = tested on: UACC-62 melanoma
[35] = tested on: SNB-19 CNS
[36] = tested on: MOLT-4 leukemia
[37] = tested on: PC-3 prostate
[38] = tested on: ACHN renal
[39] = tested on: IGROV1 ovarian
[40] = tested on: T-47D breast
[41] = tested on: SF-295 CNS
[42] = tested on: UACC-257 melanoma
[43] = tested on: HCT-116 colon
[44] = tested on: NCI-H226 lung
[45] = tested on: CCRF-CEM leukemia
[46] = tested on: NCI-H460 lung
[47] = tested on: CAKI-1 renal
[48] = tested on: M14 melanoma
[49] = tested on: U251 CNS
[50] = tested on: SK-MEL-28 melanoma
[51] = tested on: LOX IMVI melanoma
[52] = tested on: HCT-15 colon
[53] = tested on: HOP-62 NSCLC
[54] = tested on: EKVX NSCLC
[55] = tested on: SW-620 colon
[56] = tested on: OVCAR-5 ovarian
[57] = tested on: OVCAR-4 ovarian
[58] = tested on: MCF7 breast

CC12OOC(C)(OO1)C2CCC(=O)OCCNc1ccnc2cc(Cl)ccc12 (stereo unspecified)
GI50 [1]: > 18.3 µM | TGI [1]: > 18.3 µM | GI50 [2]: 16.8 µM | TGI [2]: > 18.3 µM | GI50 [3]: 3.46 µM | TGI [3]: 8.62 µM | GI50 [4]: 2.69 µM | TGI [4]: 6.03 µM | GI50 [5]: 4.95 µM | TGI [5]: 16.5 µM | GI50 [6]: 3.1 µM | TGI [6]: 5.98 µM | GI50 [7]: > 18.3 µM | TGI [7]: > 18.3 µM | GI50 [8]: > 18.3 µM | TGI [8]: > 18.3 µM | GI50 [9]: > 18.3 µM | TGI [9]: > 18.3 µM | GI50 [10]: > 18.3 µM | TGI [10]: > 18.3 µM | GI50 [11]: > 18.3 µM | TGI [11]: > 18.3 µM | GI50 [12]: > 18.3 µM | TGI [12]: > 18.3 µM | GI50 [13]: 3.71 µM | TGI [13]: 7.21 µM | GI50 [14]: 2.57 µM | TGI [14]: 4.94 µM | GI50 [15]: > 18.3 µM | TGI [15]: > 18.3 µM | GI50 [16]: > 18.3 µM | TGI [16]: > 18.3 µM | GI50 [17]: 18.3 µM | TGI [17]: > 18.3 µM | GI50 [18]: > 18.3 µM | TGI [18]: > 18.3 µM | GI50 [19]: 4.11 µM | TGI [19]: 11.8 µM | GI50 [20]: 4.17 µM | TGI [20]: 12.2 µM | GI50 [21]: > 18.3 µM | TGI [21]: > 18.3 µM | GI50 [22]: 8.81 µM | TGI [22]: > 18.3 µM | GI50 [23]: > 18.3 µM | TGI [23]: > 18.3 µM | GI50 [24]: > 18.3 µM | TGI [24]: > 18.3 µM | GI50 [25]: 2.87 µM | TGI [25]: 7.73 µM | GI50 [26]: > 18.3 µM | TGI [26]: > 18.3 µM | GI50 [27]: 3.23 µM | TGI [27]: 6.53 µM | GI50 [28]: 3.35 µM | TGI [28]: 8.03 µM | GI50 [29]: 3.57 µM | TGI [29]: 10.8 µM | GI50 [30]: > 18.3 µM | TGI [30]: > 18.3 µM | GI50 [31]: 2.72 µM | TGI [31]: 7.92 µM | GI50 [32]: > 18.3 µM | TGI [32]: > 18.3 µM | GI50 [33]: 3.47 µM | TGI [33]: 6.32 µM | GI50 [34]: > 18.3 µM | TGI [34]: > 18.3 µM | GI50 [35]: > 18.3 µM | TGI [35]: > 18.3 µM | GI50 [36]: 16.8 µM | TGI [36]: > 18.3 µM | GI50 [37]: > 18.3 µM | TGI [37]: > 18.3 µM | GI50 [38]: 1.59 µM | TGI [38]: 3.81 µM | GI50 [39]: 6.59 µM | TGI [39]: > 18.3 µM | GI50 [40]: > 18.3 µM | TGI [40]: > 18.3 µM | GI50 [41]: > 18.3 µM | TGI [41]: > 18.3 µM | GI50 [42]: > 18.3 µM | TGI [42]: > 18.3 µM | GI50 [43]: 3.59 µM | TGI [43]: 8.67 µM | GI50 [44]: 4.19 µM | TGI [44]: 14.2 µM | GI50 [45]: 5.36 µM | TGI [45]: 17.5 µM | GI50 [46]: 6.3 µM | TGI [46]: > 18.3 µM | GI50 [47]: 3.21 µM | TGI [47]: 5.96 µM | GI50 [48]: 10.8 µM | TGI [48]: > 18.3 µM | GI50 [49]: > 18.3 µM | TGI [49]: > 18.3 µM | GI50 [50]: > 18.3 µM | TGI [50]: > 18.3 µM | GI50 [51]: 2.87 µM | TGI [51]: 5.39 µM | GI50 [52]: 2.87 µM | TGI [52]: 5.47 µM | GI50 [53]: > 18.3 µM | TGI [53]: > 18.3 µM | GI50 [54]: > 18.3 µM | TGI [54]: > 18.3 µM | GI50 [55]: 5.83 µM | TGI [55]: > 18.3 µM | GI50 [56]: > 18.3 µM | TGI [56]: > 18.3 µM | GI50 [57]: 3.5 µM | TGI [57]: 7.42 µM | GI50 [58]: 7.76 µM | TGI [58]: > 18.3 µM
